Experimental findings from article PMC9170106, “Pre-clinical evaluation of LASSBio-1491: From in vitro pharmacokinetic study to in vivo leishmanicidal activity” (PLoS ONE, 2022) are described below.

Structures are written as SMILES. “And” between values parts separate entries of the source, which are not always exact repeats. Identical values can stand only once.

Data set [1] can be described thus: Aqueous solubility by UV spectroscopy. Particulars: phosphate buffer solution, buffer solution pH 7.4, 37 °C. In kind it is physicochemical. As for the experimental part: The solubility assay was carried out by correlating the concentration with the absorbance obtained by ultraviolet. First, a stock solution of the compound was prepared by dissolving 1 mg in 20 mL of methanol, and then the wavelength of greatest absorption of each compound was obtained by scanning between wavelengths from 200 nm to 500 nm. From the stock solution, six dilutions were prepared (dilution factor: 2.5), and the absorbance reading was performed in quartz cuvettes (10 mm optical path) in the UV-VIS spectrophotometer (Femto 800XI) at the previously determined wavelength. With the values obtained, a calibration curve with linear regression was made, in which the linearity of the analytical method is observed, with values of correlation coefficient (p > 0.95).
The compound was dissolved in a phosphate buffer solution (pH 7.4), prepared according to the Brazilian Pharmacopoeia (Vol.1) to obtain a supersaturated solution. The supersaturated aqueous solution was kept under stirring for 4 hours at 37°C and then the sample was filtered on a 0.45 μm filter to carry out the reading at the corresponding wavelength of the compound. The solubility was then determined through the equation of the straight line obtained by the linear regression of the calibration curve of each compound [19].

The nature of another data set: PAMPA-BBB permeability. An excerpt:
The parallel artificial membrane permeability assay uses 96-well plate in a “sandwich” type system, where one plate overlaps the other (PAMPA). […] The lipid mixture that impregnates the PVDF filter has a different constitution for the permeability tests for the blood-brain barrier (Brain lipid from pig extract in dodecane) and gastro-intestinal tract (L-α soy phosphatidylcholine in dodecane). In the PAMPA BBB and TGI assays, the optical density values obtained in the reading at each selected wavelength, for each of the compounds were analyzed in comparison with the values of several controls. In the case of the BBB, these values were used to elaborate an equation and determine the permeability coefficient (Pe), using a previously elaborated spreadsheet, and, for the TGI, these values were used to determine the absorbed fraction (Fa%), both using the Excel® program.

The next data set is described as follows: Plasma stability. In kind it is in vitro ADME, rat. As for the experimental part: For analysis of plasma stability, the LASSBio-1491 in a final concentration of 5 μM from stock solution of 1 mM, was added in 50 μL of rat plasma solution diluted in 250 μL with PBS (pH 7.4) and was placed in a shaker at 37 °C under vigorous stirring for 0, 30, 60, 120 and 240 minutes. After each reaction time, 500 μL of cold methanol and 500 μL of cold acetonitrile containing 5 uM of methyl 1,1’biphenyl-4-carboxylate 5 μM (internal standard) were added to the wells to stop the reaction. The solution was mixed and centrifuged at 24500 x g for 15 min (Universal centrifuge 320R Hettich®). The supernatant (1 mL) was filtrated and placed in vials to be analyzed by HPLC-PDA, Shimadzu—LC20AD, Kromasil C-18 column (4.6 mm x 250 mm, 5 μm), SPD M20A diode array detector, flow 1 mL/min, mobile phase acetonitrile: water 1:1 (v/v) for LASSBio-1491 and acetonitrile: water 60:40 (v/v) for LASSBio-1736, for 20 minutes at 254 nm wavelength.

The next data set deals with spleen cells. The experiment in a line: Cytotoxicity against spleen cells (propidium iodide). Conditions: Mus musculus, 24 h. As to the method: To carry out the suspension preparation of spleen cells, BALB/c mice were euthanized, and an incision was made to remove the spleen. The spleens were macerated using the end of the plungers from a 1 mL syringe in a 70 μm strainer placed in a Petri dish containing RPMI medium. […] After incubation for 4 min at room temperature, the cells were washed with RPMI medium. Subsequently, samples from three animals were pooled and the cell suspension was passed through a 40 μm strainer. Cells were counted in a Neubauer chamber and splenocytes were plated at a concentration of 5 x 10^5 cells per well in a 96-well culture plate. […] Moreover, spleen cells were also cultured just with medium (free of compounds or vehicle) or with DMSO 0.1%. […] After, the propidium iodide incorporation was performed according to the instructions of the Propidium Iodide Kit (Sigma, Copenhagen, Denmark). The splenocytes were analyzed in a FACS Canto II flow cytometer. The data files were saved using FACS Diva software and data analysis was done using Flow Jo software. […] Data obtained from experiments were expressed as the mean ± standard error of the mean (S.E.M.) of spleen died cells and statistical differences between the treated and the vehicle groups of experiments were evaluated by ANOVA and Dunnett hoc tests.

For data set [2], the system named is L. major amastigote LV39 substrain. The experiment in a line: In vitro activity against intramacrophage amastigotes, LV39. Particulars: Leishmania major. The data set is classed as cell-based. As for the experimental part: Briefly, female BALB/c mice (6 to 8 weeks old) received 1 mL sterile of 3% sodium thioglycolate by intraperitoneal route (i.p.) and were euthanized after 4 days. The intraperitoneal lavage was collected from the peritoneal cavity of mice using sterile PBS and cells were counted in a hemocytometer. Peritoneal adherent cells (macrophages) were plated at a concentration of 2 x 10^5 cells per well in 24-well culture plates containing glass coverslips. Subsequently, L. major promastigotes (harvested after the third passage) were added at a concentration of 2 x 10^6 parasites per well, aiming to infect the macrophages. […] After 24 hours in an incubator at 37 °C and 5% CO2, the coverslips were washed with PBS and stained with Giemsa-May Grünwald. The number of amastigotes in 100 macrophages was determined by counting using optical microscope (100x objective). Furthermore, the cell culture supernatant was also collected for nitrite measurement using the Griess reaction, an indirect way of determining the concentration of nitric oxide in the supernatant of infected macrophages from the experimental groups. The results obtained were expressed as the mean ± S.E.M. of the number of amastigotes or nitrite concentration from duplicate cultures of representative assays, with the data analyzed by ANOVA and Dunnett hoc tests, considering a significance level of p < 0.05. In addition, the linear regression analysis from the Kc values at employed concentrations was used to determine the IC50.

The nature of another data set: Microsomal metabolism. Particulars: rat liver microsomes, without NADPH regenerating system. In kind it is in vitro ADME.

Take `O=C(N/N=C/c1ccc([N+](=O)[O-])o1)NNC(=O)c1ccc(Cl)cc1` [LASSBio-1491]: the solubility at 4 h in data set [1] is 8.72 µM and 3.06 µg/mL. In “PAMPA-BBB permeability” (PAMPA), this molecule had a Papp of 2.96 ×10⁻⁶ cm/s. Also, the Classification entry in “PAMPA-BBB permeability” (PAMPA-BBB) is given as “CNS+/-”. Besides, in the data set “Plasma stability” (rat plasma), the “Elimination rate constant (k)” value is given as 0.0006. This molecule also returned a t1/2 in “Plasma stability” (rat plasma) of 19.25 h. Further, in the data set “Plasma stability” (rat plasma, 5 μM, 37 °C, up to 240 min), the Metabolism rate stood at 15.11%. The half-life at 5 μM in the data set “Plasma stability” (rat, rat plasma diluted with PBS, pH 7.4, rat plasma) was 28.9 h. For the same molecule, the recovery at 5 μM in “Plasma stability” (rat, rat plasma diluted with PBS, pH 7.4, read-out: Recovery rate) stood at 88.5%. Besides, the IC50 was > 100 µM in the data set on spleen cells and 8.3 ± 0.3 µM in data set [2] (Macrophage, amastigote LV39 in macrophages, 24 h). For the same molecule, the Emax in data set [2] (amastigote LV39, read-out: Maximum effect (% ± S.E.M.)) stood at 60.2 ± 1.9%. Further, the “Metabolism rate non co-factor” value in “Microsomal metabolism” turned out to be 10.87%.
